Measurements as given in patent EP2815749A1, “Solid form of 4-amino-2-(2,6-dioxopiperidine-3-yl)isoindoline-1,3-dione having specified X-ray diffraction pattern” (IP Gesellschaft für Management mbH, priority 2013, dated 2014).

Legend:
Type in all cases: physicochemical
[1] = Stability of pomalidomide Form A
Procedure: (§1) Hygroscopicity: Dynamic vapor sorption (DVS) analysis was carried out for two preparations of Form A using Surface Measurement Systems DVS. Representative DVS isotherm plots are presented in Figure 23 of WO2013/126326 and Figure 24 of WO2013/126326. In one study, the moisture uptake was less than about 0.14 % (wv'w) up to 95% relative humidity, indicative that pomalidomide Form A is not hygroscopic. […] At the end of desorption, the sample lost all of the weight it gained during the process of moisture sorption. […] The X-ray powder diffractograms are shown in Figure 25 and Figure 26 of WO2013/126326. […] The physical properties of the exposed form A were unchanged as compared to at the start of the study. Form A also appeared to be stable in acetone, acetonitrile, ethanol, ethyl acetate, methyl ethyl ketone, THF, toluene, ethanoi-water (1 : 1) or water at 40°C for at least 4 weeks. Compression Test: A compression test for Form A was carried out by applying 2000-psi pressure to the sample for 1 minute and then analyzing the sample by XRPD. […] Particle Size Distribution: In some embodiments, Form A was prepared as a white, irregular plate crystalline with a particle size D90 < 12 ? . Particle size distribution was determined for various lots of pomalidomide. Table 15: Particle Size Data for Pomalidomide Lots

[2] = Hygroscopicity of pomalidomide Form A (DVS)
Procedure: Pomalidomide Polymorph Preparations: A weighed sample of pomalidomide (about 100 mg) was treated with 2 mL of a test solvent. The solvents used were either reagent or HPLC grade. The resulting mixture was agitated for at least 24 hours at 25°C. When all of the solids were dissolved by visual inspection, the estimated solubilities were calculated. The solubility was estimated from these experiments based on the total volume of solvent used to give a solution. The actual solubility may be greater than those calculated due to the use of a large amount of solvent or to a slow rate of dissolution. […] A known volume of filtrate was evaporated to dryness and the weight of the residue was measured. Equilibration and evaporation experiments were carried out by adding an excess of pomalidomide to 4 mL of a test solvent. The resulting mixture was agitated for at least 24 hours at 25°C and 50°C separately. […] All of the samples generated as described in the polymorph preparation study were analyzed by XRPD. […] Diffracted radiation was detected by peitier-cooled Si(Li) solid state detector. […] Approximately 2-5 mg of sample was placed into a DSC pan and the weight was accurately recorded. […] Hygroscopicity was determined on a Surface Measurement Systems DVS. Typically a sample size of 10-50 mg was loaded into the DVS instrument sample pan and the sample was analyzed on a DVS automated sorption analyzer at 25°C. […]

[3] = Compression test of pomalidomide Form A; conditions: 2000-psi pressure for 1 minute
Procedure: as §1

Nc1cccc2c1C(=O)N(C1CCC(=O)NC1=O)C2=O (centres unmarked) [pomalidomide Form A, 4-amino-2-(2,6-dioxopiperidine-3-yl)isoindoline-1,3-dione]
physical properties after exposure ([1]; 40°C/75% RH environment for four weeks): unchanged | time stable in solvent ([1]; acetone, acetonitrile, ethanol, ethyl acetate, methyl ethyl ketone, THF, toluene, ethanol-water (1:1) or water at 40°C): at least 4 weeks | mass change over the dry mass ([2]; relative humidity increased from 0 to 95%, another study): less than 0.11% | moisture uptake ([2]; up to 95% relative humidity, one study): less than 0.14 % (wv'w) | XRPD pattern after compression [3]: unchanged
